According to patent publication US20240024488A1, “COMPOUNDS AND USES THEREOF” (Foghorn Therapeutics Inc., priority 2020, published 2024):

Experiments:
HiBit-BRM fusion protein = molecular target: T1, HiBit-BRM fusion protein (Homo sapiens, UniProt P51531); experiment: HiBiT-BRM cell-based degradation assay (Nano-Glo HiBiT Lytic Detection, 24 h); details: HeLa cell line expressing HiBiT-BRM; for DC50: read-out: BRM HiBit Degradation IC50
T1 construct: expressed in transfected cells
Method in brief: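 Stable HiBiT-BRM HeLa line; 24 h compound exposure, top final 30 μM, 3-fold, 10 pts in duplicate. Lytic HiBiT/LgBiT luminescence readout. % degradation vs DMSO (0%) and 2 μM known BRM/BRG1 degrader (100%).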

[1] = molecular target: T2, HiBit-BRG1 fusion protein (Homo sapiens, UniProt P51532); experiment: HiBiT-BRG1 cell-based degradation assay (Nano-Glo HiBiT Lytic Detection, 24 h); details: HeLa cell line expressing HiBit-BRG1 and LgBit; for Dmax: read-out: BRG1 HiBit Degradation Maximum (%); for DC50: read-out: BRMG1 HiBit Degradation IC50
T2 construct: expressed in transfected cells
T2 sequence (P51532 whole entry, the tested form may be a part): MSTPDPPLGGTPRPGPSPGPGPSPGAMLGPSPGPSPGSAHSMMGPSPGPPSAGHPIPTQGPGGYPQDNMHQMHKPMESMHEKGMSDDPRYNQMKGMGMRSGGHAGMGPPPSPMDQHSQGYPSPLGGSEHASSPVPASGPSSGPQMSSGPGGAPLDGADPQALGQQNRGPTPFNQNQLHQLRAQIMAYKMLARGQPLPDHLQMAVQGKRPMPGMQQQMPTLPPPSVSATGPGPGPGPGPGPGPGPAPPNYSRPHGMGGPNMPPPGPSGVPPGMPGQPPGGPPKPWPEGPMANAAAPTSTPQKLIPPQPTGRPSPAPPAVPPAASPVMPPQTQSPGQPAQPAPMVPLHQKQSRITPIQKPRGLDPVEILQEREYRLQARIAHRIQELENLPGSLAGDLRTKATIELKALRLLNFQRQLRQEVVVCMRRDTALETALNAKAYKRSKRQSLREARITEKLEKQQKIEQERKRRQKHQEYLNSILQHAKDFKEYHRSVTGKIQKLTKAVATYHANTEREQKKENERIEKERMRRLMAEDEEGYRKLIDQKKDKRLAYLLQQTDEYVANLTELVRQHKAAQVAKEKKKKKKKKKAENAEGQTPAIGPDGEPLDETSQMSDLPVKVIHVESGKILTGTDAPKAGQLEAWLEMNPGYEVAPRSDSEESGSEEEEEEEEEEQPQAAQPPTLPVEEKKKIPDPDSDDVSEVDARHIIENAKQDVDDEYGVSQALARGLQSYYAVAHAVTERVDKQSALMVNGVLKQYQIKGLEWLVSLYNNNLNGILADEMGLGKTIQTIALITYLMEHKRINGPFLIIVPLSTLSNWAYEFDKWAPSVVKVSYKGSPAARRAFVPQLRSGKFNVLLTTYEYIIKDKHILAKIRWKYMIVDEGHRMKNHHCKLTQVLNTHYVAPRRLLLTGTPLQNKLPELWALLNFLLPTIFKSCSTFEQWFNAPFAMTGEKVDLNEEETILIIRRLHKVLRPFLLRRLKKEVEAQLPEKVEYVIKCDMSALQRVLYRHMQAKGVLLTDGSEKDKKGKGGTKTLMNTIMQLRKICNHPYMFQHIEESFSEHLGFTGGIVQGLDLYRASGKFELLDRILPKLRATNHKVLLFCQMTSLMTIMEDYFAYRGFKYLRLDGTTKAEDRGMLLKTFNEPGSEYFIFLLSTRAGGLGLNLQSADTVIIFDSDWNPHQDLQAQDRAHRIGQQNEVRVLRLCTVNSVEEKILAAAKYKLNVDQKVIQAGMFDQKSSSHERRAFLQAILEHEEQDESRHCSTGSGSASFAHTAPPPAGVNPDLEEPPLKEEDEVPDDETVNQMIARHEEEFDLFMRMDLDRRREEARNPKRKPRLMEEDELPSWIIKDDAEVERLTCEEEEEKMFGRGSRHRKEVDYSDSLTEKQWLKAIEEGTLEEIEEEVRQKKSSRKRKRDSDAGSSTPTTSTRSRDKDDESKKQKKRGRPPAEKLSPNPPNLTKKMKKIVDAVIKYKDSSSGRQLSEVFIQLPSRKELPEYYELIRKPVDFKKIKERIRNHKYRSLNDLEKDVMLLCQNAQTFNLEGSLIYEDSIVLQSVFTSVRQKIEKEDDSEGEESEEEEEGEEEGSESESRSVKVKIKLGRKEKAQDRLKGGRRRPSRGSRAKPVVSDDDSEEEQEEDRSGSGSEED
Method in brief: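 Percent degradation derived from lytic HiBiT signal, normalized to DMSO-treated cells and to cells given 2 μM of a known BRM/BRG1 degrader. The HeLa line stably expressed HiBit-BRG1 and LgBit; treatment lasted 24 h at 5000 cells per well.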

T1 sequence (P51531 whole entry, the tested form may be a part): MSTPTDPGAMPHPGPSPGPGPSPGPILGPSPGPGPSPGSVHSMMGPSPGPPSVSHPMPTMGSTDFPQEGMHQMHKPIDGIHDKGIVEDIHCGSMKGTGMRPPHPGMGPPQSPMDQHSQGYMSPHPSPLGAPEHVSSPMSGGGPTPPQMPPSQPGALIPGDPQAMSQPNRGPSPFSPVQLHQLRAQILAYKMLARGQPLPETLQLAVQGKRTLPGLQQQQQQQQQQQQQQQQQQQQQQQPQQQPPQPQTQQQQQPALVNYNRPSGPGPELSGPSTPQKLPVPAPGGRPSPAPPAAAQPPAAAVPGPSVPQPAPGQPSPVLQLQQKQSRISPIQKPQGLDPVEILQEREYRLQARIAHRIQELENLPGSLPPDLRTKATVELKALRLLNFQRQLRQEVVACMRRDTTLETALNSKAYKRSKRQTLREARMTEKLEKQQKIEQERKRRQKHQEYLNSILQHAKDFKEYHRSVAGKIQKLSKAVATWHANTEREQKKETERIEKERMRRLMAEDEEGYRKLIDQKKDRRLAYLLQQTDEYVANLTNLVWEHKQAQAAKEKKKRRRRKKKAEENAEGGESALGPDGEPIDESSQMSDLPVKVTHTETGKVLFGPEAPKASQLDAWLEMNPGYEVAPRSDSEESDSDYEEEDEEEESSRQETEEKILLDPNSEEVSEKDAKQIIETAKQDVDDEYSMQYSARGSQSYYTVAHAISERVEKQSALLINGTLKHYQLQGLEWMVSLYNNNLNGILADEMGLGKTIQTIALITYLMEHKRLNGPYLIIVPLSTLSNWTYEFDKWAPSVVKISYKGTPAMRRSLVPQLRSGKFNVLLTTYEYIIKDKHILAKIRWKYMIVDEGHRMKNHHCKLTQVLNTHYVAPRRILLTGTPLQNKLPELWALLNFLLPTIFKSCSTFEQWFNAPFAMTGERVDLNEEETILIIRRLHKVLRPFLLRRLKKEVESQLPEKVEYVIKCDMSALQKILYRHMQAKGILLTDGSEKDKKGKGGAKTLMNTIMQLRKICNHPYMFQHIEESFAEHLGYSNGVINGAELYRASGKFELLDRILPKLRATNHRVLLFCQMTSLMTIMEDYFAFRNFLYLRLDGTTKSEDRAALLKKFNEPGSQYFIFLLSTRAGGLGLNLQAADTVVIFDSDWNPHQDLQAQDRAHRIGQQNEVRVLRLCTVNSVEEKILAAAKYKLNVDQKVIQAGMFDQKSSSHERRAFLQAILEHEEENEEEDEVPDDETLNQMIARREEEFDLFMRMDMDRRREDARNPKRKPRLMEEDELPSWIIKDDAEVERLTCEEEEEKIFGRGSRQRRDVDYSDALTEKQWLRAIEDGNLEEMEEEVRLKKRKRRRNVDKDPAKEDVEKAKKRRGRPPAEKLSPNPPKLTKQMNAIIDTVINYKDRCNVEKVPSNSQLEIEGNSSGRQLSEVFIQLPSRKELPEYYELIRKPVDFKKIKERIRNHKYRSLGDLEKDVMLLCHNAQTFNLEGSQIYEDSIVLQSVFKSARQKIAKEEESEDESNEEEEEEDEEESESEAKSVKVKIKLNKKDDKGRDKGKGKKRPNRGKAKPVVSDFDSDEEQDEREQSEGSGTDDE

Row | SMILES | BRM HiBit Degradation Maximum (%) (HiBit-BRM fusion protein) | DC50 (HiBit-BRM fusion protein) [nM] | Dmax [1] [%] | DC50 [1] [nM]
1 | Cc1ncsc1-c1ccc([C@H](C)NC(=O)[C@@H]2C[C@@H](O)CN2C(=O)[C@@H](c2cc(OCCN3CCC(c4c(C)[nH]c5nnc(-c6ccccc6O)cc45)CC3)no2)C(C)C)cc1 (racemic) [Compound 265, (2S,4R)-4-hydroxy-1-[(2R)-2-[3-(2-{4-[3-(2-hydroxyphenyl)-6-methyl-7H-pyrrolo[2,3-c]pyridazin-5-yl]piperidin-1-yl}ethoxy)-1,2-oxazol-5-yl]-3-methylbutanoyl]-N-[(1S)-1-[4-(4-methyl-1,3-thiazol-5-yl)phenyl]ethyl]pyrrolidine-2-carboxamide] | A (“A” indicates maximum degradation ≥ 75%) | > 100 | < 50 | 
2 | Cc1ncsc1-c1ccc([C@H](C)NC(=O)[C@@H]2C[C@@H](O)CN2C(=O)[C@@H](c2onc(OCCN3CC(c4cc5cc(-c6ccccc6O)nnc5[nH]4)C3)c2Cl)C(C)C)cc1 (racemic) [Compound 266, (2S,4R)-1-((R)-2-(4-chloro-3-(2-(3-(3-(2-hydroxyphenyl)-7H-pyrrolo[2,3-c]pyridazin-6-yl)azetidin-1-yl)ethoxy)isoxazol-5-yl)-3-methylbutanoyl)-4-hydroxy-N-((S)-1-(4-(4-methylthiazol-5-yl)phenyl)ethyl)pyrrolidine-2-carboxamide] | A (“A” indicates maximum degradation ≥ 75%) | > 10 | > 75 | > 100
3 | Cc1ncsc1-c1ccc([C@H](C)NC(=O)[C@@H]2C[C@@H](O)CN2C(=O)[C@@H](c2cc(N3CCN(C(=O)C(=O)N4CC(c5c[nH]c6nnc(-c7ccccc7O)cc56)C4)CC3)no2)C(C)C)cc1 (racemic) [Compound 267, (2S,4R)-4-hydroxy-1-((R)-2-(3-(4-(2-(3-(3-(2-hydroxyphenyl)-7H-pyrrolo[2,3-c]pyridazin-5-yl)azetidin-1-yl)-2-oxoacetyl)piperazin-1-yl)isoxazol-5-yl)-3-methylbutanoyl)-N-((S)-1-(4-(4-methylthiazol-5-yl)phenyl)ethyl)pyrrolidine-2-carboxamide] | A (“A” indicates maximum degradation ≥ 75%) | > 100 | < 50 | 
4 | Cc1ncsc1-c1ccc([C@H](C)NC(=O)[C@@H]2C[C@@H](O)CN2C(=O)[C@@H](c2cc(N3CCN(CCC(=O)N4CC(c5cc6cc(-c7ccccc7O)nnc6[nH]5)C4)CC3)no2)C(C)C)cc1 (racemic) [Compound 268, (2S,4R)-4-hydroxy-1-[(2R)-2-{3-[4-(3-{3-[3-(2-hydroxyphenyl)-7H-pyrrolo[2,3-c]pyridazin-6-yl]azetidin-1-yl}-3-oxopropyl)piperazin-1-yl]-1,2-oxazol-5-yl}-3-methylbutanoyl]-N-[(1S)-1-[4-(4-methyl-1,3-thiazol-5-yl)phenyl]ethyl]pyrrolidine-2-carboxamide] | A (“A” indicates maximum degradation ≥ 75%) | > 100 |  | > 1000
5 | Cc1ncsc1-c1ccc([C@H](C)NC(=O)[C@@H]2C[C@@H](O)CN2C(=O)[C@@H](c2cc(N3CCN(C(=O)CN4CC(c5cc6cc(-c7ccccc7O)nnc6[nH]5)C4)CC3)no2)C(C)C)cc1 (racemic) [Compound 269, (2S,4R)-4-hydroxy-1-((R)-2-(3-(4-(2-(3-(3-(2-hydroxyphenyl)-7H-pyrrolo[2,3-c]pyridazin-6-yl)azetidin-1-yl)acetyl)piperazin-1-yl)isoxazol-5-yl)-3-methylbutanoyl)-N-((S)-1-(4-(4-methylthiazol-5-yl)phenyl)ethyl)pyrrolidine-2-carboxamide] | A (“A” indicates maximum degradation ≥ 75%) | > 10 | > 75 | > 100
6 | Cc1ncsc1-c1ccc([C@H](C)NC(=O)[C@@H]2C[C@@H](O)CN2C(=O)[C@@H](c2cc(OCCN3CCC(c4[nH]c5nnc(-c6ccccc6O)cc5c4C)CC3)no2)C(C)C)cc1 (racemic) [Compound 270, (2S,4R)-4-hydroxy-1-[(2R)-2-[3-(2-{4-[3-(2-hydroxyphenyl)-5-methyl-7H-pyrrolo[2,3-c]pyridazin-6-yl]piperidin-1-yl}ethoxy)-1,2-oxazol-5-yl]-3-methylbutanoyl]-N-[(1S)-1-[4-(4-methyl-1,3-thiazol-5-yl)phenyl]ethyl]pyrrolidine-2-carboxamide] | A (“A” indicates maximum degradation ≥ 75%) | < 10 | > 75 | > 10
7 | Cc1ncsc1-c1ccc([C@H](C)NC(=O)[C@@H]2C[C@@H](O)CN2C(=O)[C@@H](c2cc(OCCN3CCC(N4CC(c5[nH]c6nnc(-c7ccccc7O)cc6c5C)C4)CC3)no2)C(C)C)cc1 (racemic) [Compound 271, (2S,4R)-4-hydroxy-1-((R)-2-(3-(2-(4-(3-(3-(2-hydroxyphenyl)-5-methyl-7H-pyrrolo[2,3-c]pyridazin-6-yl)azetidin-1-yl)piperidin-1-yl)ethoxy)isoxazol-5-yl)-3-methylbutanoyl)-N-((S)-1-(4-(4-methylthiazol-5-yl)phenyl)ethyl)pyrrolidine-2-carboxamide] | A (“A” indicates maximum degradation ≥ 75%) | < 10 | > 75 | > 10
8 | Cc1ncsc1-c1ccc([C@H](C)NC(=O)[C@@H]2C[C@@H](O)CN2C(=O)C(c2cc(N3CCC(C(=O)N4CC(c5cc6cc(-c7ccccc7O)nnc6[nH]5)C4)CC3)no2)C(C)C)cc1 (mixture of isomers) [Compound 274, (2S,4R)-4-hydroxy-1-((S)-2-(3-(4-(3-(3-(2-hydroxyphenyl)-7H-pyrrolo[2,3-c]pyridazin-6-yl)azetidine-1-carbonyl)piperidin-1-yl)isoxazol-5-yl)-3-methylbutanoyl)-N-((S)-1-(4-(4-methylthiazol-5-yl)phenyl)ethyl)pyrrolidine-2-carboxamide] | A (“A” indicates maximum degradation ≥ 75%) | > 10 | > 75 | > 100
9 | Cc1ncsc1-c1ccc([C@H](C)NC(=O)[C@@H]2C[C@@H](O)CN2C(=O)[C@@H](c2cc(OCCN3CC(C)(c4cc5cc(-c6ccccc6O)nnc5[nH]4)C3)no2)C(C)C)cc1 (racemic) [Compound 275, (2S,4R)-4-hydroxy-1-((R)-2-(3-(2-(3-(3-(2-hydroxyphenyl)-7H-pyrrolo[2,3-c]pyridazin-6-yl)-3-methylazetidin-1-yl)ethoxy)isoxazol-5-yl)-3-methylbutanoyl)-N-((S)-1-(4-(4-methylthiazol-5-yl)phenyl)ethyl)pyrrolidine-2-carboxamide] | A (“A” indicates maximum degradation ≥ 75%) | > 10 | < 50 | 
10 | Cc1ncsc1-c1ccc([C@H](C)NC(=O)[C@@H]2C[C@@H](O)CN2C(=O)[C@@H](c2cc(OCCN3CCC(C)(c4cc5cc(-c6ccccc6O)nnc5[nH]4)CC3)no2)C(C)C)cc1 (racemic) [Compound 276, (2S,4R)-4-hydroxy-1-((R)-2-(3-(2-(4-(3-(2-hydroxyphenyl)-7H-pyrrolo[2,3-c]pyridazin-6-yl)-4-methylpiperidin-1-yl)ethoxy)isoxazol-5-yl)-3-methylbutanoyl)-N-((S)-1-(4-(4-methylthiazol-5-yl)phenyl)ethyl)pyrrolidine-2-carboxamide] | A (“A” indicates maximum degradation ≥ 75%) | > 10 | > 50 | > 1000
11 | Cc1ncsc1-c1ccc([C@H](C)NC(=O)[C@@H]2C[C@@H](O)CN2C(=O)[C@@H](c2cc(OCCN3CCC(O)(c4cc5cc(-c6ccccc6O)nnc5[nH]4)CC3)no2)C(C)C)cc1 (racemic) [Compound 277, (2S,4R)-4-hydroxy-1-((R)-2-(3-(2-(4-hydroxy-4-(3-(2-hydroxyphenyl)-7H-pyrrolo[2,3-c]pyridazin-6-yl)piperidin-1-yl)ethoxy)isoxazol-5-yl)-3-methylbutanoyl)-N-((S)-1-(4-(4-methylthiazol-5-yl)phenyl)ethyl)pyrrolidine-2-carboxamide] | A (“A” indicates maximum degradation ≥ 75%) | > 100 | < 50 | 
12 | Cc1ncsc1-c1ccc([C@H](C)NC(=O)[C@@H]2C[C@@H](O)CN2C(=O)[C@@H](c2cc(OCCN3CCC[C@H](c4cc5cc(-c6ccccc6O)nnc5[nH]4)C3)no2)C(C)C)cc1 (racemic) [Compound 278, (2S,4R)-4-hydroxy-1-((R)-2-(3-(2-((S)-3-(3-(2-hydroxyphenyl)-7H-pyrrolo[2,3-c]pyridazin-6-yl)piperidin-1-yl)ethoxy)isoxazol-5-yl)-3-methylbutanoyl)-N-((S)-1-(4-(4-methylthiazol-5-yl)phenyl)ethyl)pyrrolidine-2-carboxamide] | A (“A” indicates maximum degradation ≥ 75%) | > 10 | > 50 | > 10
13 | Cc1ncsc1-c1ccc([C@H](C)NC(=O)[C@@H]2C[C@@H](O)CN2C(=O)[C@@H](c2cc(OCCN3CCC[C@@H](c4cc5cc(-c6ccccc6O)nnc5[nH]4)C3)no2)C(C)C)cc1 (racemic) [Compound 279, (2S,4R)-4-hydroxy-1-((R)-2-(3-(2-((R)-3-(3-(2-hydroxyphenyl)-7H-pyrrolo[2,3-c]pyridazin-6-yl)piperidin-1-yl)ethoxy)isoxazol-5-yl)-3-methylbutanoyl)-N-((S)-1-(4-(4-methylthiazol-5-yl)phenyl)ethyl)pyrrolidine-2-carboxamide] | A (“A” indicates maximum degradation ≥ 75%) | > 10 | < 50 | 
